According to patent US20260240683A1, “MOLECULAR LINKERS” (CWAN TECHNOLOGIES PTY LTD, priority 2023, published 2026):

What was measured:
[1] = Diffusion into thermally gelled 12% gelatin gel disc (A452 read-out), model corneal stroma; type: physicochemical
Procedure: A 12% Gelatin (Sigma G1890) Type A, 300 Bloom solution was prepared in PBS (pH7.4) by melting at 50° C. 60 μL was added to an 8.5 mm (diameter)×1 mm (deep) round Teflon mould. The Gelatin was allowed to set thermally for 10 min at 18.5° C. At 10 min, 60 μL 0.5 mM Ru(bpy)3 (0.5 mM solution in PBS) is added to the top of the thermally gelled 12% gelatin disc. The gelatin disc was covered with foil during diffusion time. Excess solution was blotted from the top of the gel using a Kimwipe. Remove gelled disc using spatula, add to 940 μL of PBS @55° C. Melt gel (30 sec)—add solution to cuvette, read A452.
If diffusion is expressed as a percentage of the total disc volume equilibrated with the applied 0.5 mM Ru(bpy)3 solution, then, assuming total mixing of the applied 60 μL solution with the 60 μL gelatin disc, 100% diffusion would represent an A452 of 0.205 [0.221−0.016=gelatin−PBS blank)]. So, diffusion to 30% of the hydrogel depth/thickness (in this case representing ca. 300 μm) would be attained in about 2.3 min. This is the desired depth of penetration of a crosslinking agent in the human cornea (by comparison with Riboflavin-based CXL methods, which require 30 minutes of diffusion).

[2] = Riboflavin solubility at 0.1% in PBS; type: physicochemical
[3] = Photochemical crosslinking of corneal stroma using 3D template mould; design: species or system bovine; conditions: 300 μL, 10 min diffusion, 20 sec 450 nm blue LED at 1 cm; 1 mM Ru(bpy)3 with or without 50 mM SPS
Procedure: The entire epithelium was debrided from a cornea. 300 μL of 1 mM Ru(bpy)3+50 mM SPS was applied to the anterior corneal surface for a diffusion time of 10 minutes (FIG. 9A). The cornea was wrapped over a metal piping nozzle, acting as a mould, and irradiated for 20 seconds using 450 nm blue LED dental lamp at a distance of 1 cm from the light guide tip (FIG. 9B).
A cornea was subject to the crosslinking protocol described in Example 3A, except that sodium persulphate (SPS) was omitted. […] In its absence, singlet oxygen radical production by short (20 sec) blue light irradiation of Ru(bpy)3 in aqueous solution is insufficient to cause any measurable covalent crosslinking of endogenous stromal proteins. In contrast, in its presence, crosslinking of endogenous corneal proteins and “molecular linkers” occurs rapidly and quantitatively.

[4] = Diffusion of Ru(bpy)3+SPS and photochemical crosslinking of 1 mm 12% gelatin hydrogel (weight after 65° C. melt); type: physicochemical
Procedure: Method: 12% Gelatin (Sigma G1890) Type A 300 Bloom in PBS (pH 7.4), was melted at 50° C. and 60 μL added to an 8.5 mm (diameter) disc×1 mm (deep) Teflon mould. The gelatin was allowed to set thermally for 10 min at 18.5° C. 60 μL of Ru(bpy)3/SPS solution (either a 0.5 mM Ru(bpy)3+50 mM SPS; a 1.0 mM Ru(bpy)3+50 mM SPS or a 2.0 mM Ru(bpy)3+50 mM SPS) was added and allowed to diffuse into the gel disc for varying times (0, 2, 4, 6, 8, 10, 14 min). Excess liquid was blotted from the top surface of the mould. At the end point of the diffusion period, the thermally set gelatin hydrogel was illuminated using a 3M ESPE blue LED lamp (1,200 mW/cm^2) for 5 sec at 1 cm distance from the light guide tip. The crosslinked gelatin hydrogel was weighed on a microbalance before being placed into a 65° C. water bath for 30 sec. Excess liquid was removed from the crosslinked hydrogel and it was again weighed to measure residual crosslinked gelatin hydrogel. A plot was prepared showing % crosslinked gelatin vs diffusion time (zero to 14 min).
Aim: To determine the time required for a solution containing Ru(bpy)3+SPS to diffuse through a 1 mm thick sheet of thermally-gelled gelatin and then to form covalent crosslinks between gelatin molecules, thus rendering the hydrogel resistant to subsequent melting at high temperature. […]

[5] = Ru(bpy)3 diffusion through debrided bovine cadaver corneal stroma; type: in vitro ADME; conditions: PBS solution containing 0.5 mM Ru(bpy)3; 800 μm thick bovine cadaver corneal stroma; within 6 minutes
Procedure: 10 fresh bull eyes were obtained from an abattoir (<10 hours old, stored at 4° C.). Using a digital caliper, the thickness of the corneas was determined to be within the range of 740 μm to 820 μm. The epithelium of the eyes was debrided with an 8 mm biopsy punch and scraped-off with a scalpel blade.
[…] Excess Ru(bpy)3 solution was removed by blotting using a fresh Kimwipe tissue.
Corneas were frozen on the surface of an aluminium block at −20° C. for 2 minutes (FIG. 7B). Transverse (bisecting) cross-sections of cornea were prepared by cutting a 1 mm thick section using a razor blade. The corneal cross-section was mounted on a glass slide to allow visualization of the cross-sectional area of the corneal stroma (FIG. 7C). Ru(bpy)3 was visualized through a red filter with illumination with a 450 nm LED light (FIG. 7).
The rate of diffusion of Ru(bpy)3 through both fresh bovine cadaver corneal stroma and through a thermally gelled 12% gelatin hydrogel (as a model corneal stromal matrix), was studied.

Row | Structure (SMILES) | rate of diffusion through 12% gelatin hydrogel compared with 0.5 mM Ru(bpy)3 solution ([1]; Riboflavin 0.1% (2.6 mM)) | solubility at 0.1% (2.6 mM) ([2]; PBS (pH 7.4)) | solubility at 0.1% (2.6 mM) ([2]; PBS with NaOH added, pH ca. 8.5, RT) | time to diffuse to 30% of the hydrogel depth/thickness (ca. 300 μm) ([1]; 0.5 mM Ru(bpy)3 in PBS, 60 μL on 1 mm deep 12% gelatin disc) | formation of templated 3D structure of cornea after photo-crosslinking on mould [3] | time to diffuse through the entire 1.0 mm thickness of 12% (w/v) gelatin hydrogel ([4]; Ru(bpy)3+50 mM SPS solutions (0.5, 1.0, 2.0 mM)) | covalent crosslinking of gelatin hydrogel after the diffusion step ([4]; Ru(bpy)3+SPS, 5 second illumination with 450 nm blue LED lamp) | depth of free diffusion through corneal stroma [5]
1 | Cc1cc2nc3c(=O)[nH]c(=O)nc-3n(C[C@H](O)[C@H](O)[C@H](O)CO)c2cc1C [Riboflavin, riboflavin] | slightly slower | =2.6 mM in PBS (pH 7.4) - not fully soluble in PBS* | *Added 1 μL of 10N NaOH to 2 ml of 0.1% solution in PBS - took pH to ca. 8.5 (by pH paper test). Riboflavin solution was now fully soluble at 0.1% (2.6 mM) at RT. |  |  |  |  | 
2 | [Cl-].[Cl-].[Ru+2].c1ccc(-c2ccccn2)nc1.c1ccc(-c2ccccn2)nc1.c1ccc(-c2ccccn2)nc1 [Ru(bpy)3, ruthenium (tris)bipyridyl chloride] |  |  |  | about 2.3 min | no mould template structure was formed | ≤ 6 min | entire gelatin hydrogel can be covalently crosslinked | 400 μm
